Test results from patent publication US10071083B2 (Ovid Therapeutics Inc., priority 2017, dated 2018).

Tests used:
tinnitus = settings: published studies reviewed by Jufas and Wood (2015); cited from earlier work
[1] = system: healthy, male and female subjects; assay: Study of driving performance after gaboxadol administration (Example 3); format: in vivo, human
Description: The study participants included healthy, male and female subjects between 21 and 45 years of age, with a valid drivers license for at least 3 years.
Following a cognitive and psychomotor test battery, the driving test started at 9 am and lasted for one hour.

patients = patients with a history of drug abuse who received gaboxadol; cited from earlier work
[2] = system: healthy adults subjected to a 5-hour sleep restriction; assay: Study of daytime performance after sleep restriction (Example 4); format: in vivo, human
Protocol: The study included a 2-night single-blind placebo run-in period, a 4-night double-blind treatment period during which sleep was restricted to 5 hours and a 2-night single-blind placebo run-out period. The study included healthy male and female volunteers 18 to <55 years of age.
2-night run-in period: All patients received placebo
2-night run-out period: All patients received placebo
The primary endpoints included observations based on the Multiple Sleep Latency Test (MSLT) and Slow Wave Sleep (SWS) assessment.

[3] = human, in vivo

Structure (SMILES): O=C1CN=C(c2ccccc2Cl)c2cc([N+](=O)[O-])ccc2N1 [Clonazepam]
- efficacy in treating tinnitus (tinnitus): effective

Structure (SMILES): Cc1nnc2n1-c1ccc(Cl)cc1C(c1ccccc1)=NC2 [alprazolam]
- efficacy in treating tinnitus (tinnitus): opposing results

Structure (SMILES): CN1C(=O)CN=C(c2ccccc2)c2cc(Cl)ccc21 [diazepam]
- efficacy in treating tinnitus (tinnitus): not effective

Structure (SMILES): Oc1noc2c1CCNC2 [gaboxadol, 4,5,6,7-tetrahydroisoxazolo [5,4-c]pyridine-3-ol]
- most frequent adverse events, middle-of-the-night treatment ([1]; gaboxadol 15 mg at 4 am): dizziness, nausea and somnolence
- effect on driving after evening dose compared with blood alcohol ([1]; gaboxadol 15 mg evening dose, comparison with 0.05% blood alcohol concentration): less than the effect observed at a 0.05% blood alcohol concentration
- most frequent adverse events, evening treatment ([1]; gaboxadol 15 mg in the evening): headache and somnolence
- psychiatric adverse events (patients): steep increase
- biophysiological measures of stress (heart rate variability, cortisol levels, catecholamine levels, body temperature) versus placebo ([2]; gaboxadol 15 mg versus placebo): no differences
- daytime performance, effect sizes of the neurocognitive battery ([2]; gaboxadol 15 mg versus placebo): no strong evidence that gaboxadol improves daytime performance
- daytime sleepiness during the Sleep Restriction period versus placebo (MSLT) ([2]; gaboxadol 15 mg, 4 nights, sleep restricted to 5 hours, p=0.047, 1 sided): significantly less daytime sleepiness
- MSLT longer than placebo, on average ([2]; gaboxadol 15 mg, last two Sleep Restriction days): 2.01 min
- Karolinska Sleepiness Score (KSS) less than placebo, on average ([2]; gaboxadol 15 mg, last two Sleep Restriction days, LDA model, p=0.058, 1 sided): 0.68
- SWS longer than placebo, on average ([2]; gaboxadol 15 mg, last two Sleep Restriction nights): 20.53 min
- slow wave sleep (SWS) during the Sleep Restriction period versus placebo ([2]; gaboxadol 15 mg, p<0.001, 1 sided): significantly more SWS
- CL (in the CL/F line) ([3]; iv, 10 mg): 438 mL/min
- dose dependence of plasma AUC0-∞ and Cmax ([3]; po): dose proportional increases
